Results published in patent publication US8114880B2, “Piperidine or piperazine substituted tetrahydro-naphthalene-1-carboxylic acid MTP inhibiting compounds” (Janssen Pharmaceutica N.V., priority 2006, dated 2012).

These molecules were tested against MTP (Homo sapiens, UniProt P55157) (assay: MTP assay (triglyceride transfer from donor to acceptor vesicles)). Conditions: MTP activity, percent triglyceride transfer from donor to acceptor vesicles, 37° C.
Type: biochemical
Protocol: MTP activity was measured using an assay similar to one described by J. R. Wetterau and D. B. Zilversmit in Chemistry and Physics of Lipids, 38, 205-222 (1985). To prepare the donor and acceptor vesicles, the appropriate lipids in chloroform were put into a glass test tube and dried under a stream of nitrogen. A buffer containing 15 mM Tris-HCl pH 7.5, 1 mM EDTA, 40 mM NaCl, 0.02% NaN3 (assay buffer) was added to the dried lipid. The mixture was vortexed briefly and the lipids were then allowed to hydrate for 20 minutes on ice. Vesicles were then prepared by bath sonication (Branson 2200) at room temperature for maximum 15 minutes. Butylated hydroxytoluene was included in all vesicle preparations at a concentration of 0.1%. The lipid transfer assay mixture contained donor vesicles (40 nmol phosphatidylcholine, 7.5 mol % of cardiolipin and 0.25 mol % glycerol tri [1-^14C]-oleate), acceptor vesicles (240 nmol phosphatidylcholine) and 5 mg BSA in a total volume of 675 μl in a 1.5 ml microcentrifuge tube. Test compounds were added dissolved in DMSO (0.13% final concentration). After 5 minutes of pre-incubation at 37° C., the reaction was started by the addition of MTP in 100 μl dialysis buffer. The reaction was stopped by the addition of 400 μl DEAE-52 cellulose pre-equilibrated in 15 mM Tris-HCl pH 7.5, 1 mM EDTA, 0.02% NaN3 (1:1, vol/vol). The mixture was agitated for 4 minutes and centrifuged for 2 minutes at maximum speed in an Eppendorf centrifuge (4° C.) to pellet the DEAE-52-bound donor vesicles. An aliquot of the supernatant containing the acceptor liposomes was counted and the [^14C]-counts were used to calculate the percent triglyceride transfer from donor to acceptor vesicles.

MTP, sequence (P55157 19-894, species assumed): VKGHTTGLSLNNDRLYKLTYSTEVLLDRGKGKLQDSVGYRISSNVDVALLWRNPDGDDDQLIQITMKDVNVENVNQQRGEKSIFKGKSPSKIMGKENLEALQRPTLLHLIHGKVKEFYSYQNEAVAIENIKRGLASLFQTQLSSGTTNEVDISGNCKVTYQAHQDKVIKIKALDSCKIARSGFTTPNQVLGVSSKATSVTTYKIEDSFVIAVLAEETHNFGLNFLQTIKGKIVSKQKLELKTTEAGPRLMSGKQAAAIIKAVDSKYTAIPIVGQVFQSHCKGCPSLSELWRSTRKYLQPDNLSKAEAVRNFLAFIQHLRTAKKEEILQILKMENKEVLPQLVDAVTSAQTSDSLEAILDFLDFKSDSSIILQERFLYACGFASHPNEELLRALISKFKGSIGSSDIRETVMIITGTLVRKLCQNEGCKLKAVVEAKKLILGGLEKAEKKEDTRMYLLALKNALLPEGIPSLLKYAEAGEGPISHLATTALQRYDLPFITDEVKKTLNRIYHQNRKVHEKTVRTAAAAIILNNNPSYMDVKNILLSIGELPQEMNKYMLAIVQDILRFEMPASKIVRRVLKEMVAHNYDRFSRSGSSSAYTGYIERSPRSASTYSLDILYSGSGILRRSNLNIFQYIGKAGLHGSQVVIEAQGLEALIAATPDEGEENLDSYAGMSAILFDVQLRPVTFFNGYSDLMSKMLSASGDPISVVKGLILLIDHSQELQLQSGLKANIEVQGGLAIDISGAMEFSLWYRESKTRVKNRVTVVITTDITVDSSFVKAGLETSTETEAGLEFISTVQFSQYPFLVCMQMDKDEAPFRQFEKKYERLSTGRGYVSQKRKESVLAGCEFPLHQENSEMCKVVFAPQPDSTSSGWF
MTP, sequence (P07237 18-508 partner, species assumed): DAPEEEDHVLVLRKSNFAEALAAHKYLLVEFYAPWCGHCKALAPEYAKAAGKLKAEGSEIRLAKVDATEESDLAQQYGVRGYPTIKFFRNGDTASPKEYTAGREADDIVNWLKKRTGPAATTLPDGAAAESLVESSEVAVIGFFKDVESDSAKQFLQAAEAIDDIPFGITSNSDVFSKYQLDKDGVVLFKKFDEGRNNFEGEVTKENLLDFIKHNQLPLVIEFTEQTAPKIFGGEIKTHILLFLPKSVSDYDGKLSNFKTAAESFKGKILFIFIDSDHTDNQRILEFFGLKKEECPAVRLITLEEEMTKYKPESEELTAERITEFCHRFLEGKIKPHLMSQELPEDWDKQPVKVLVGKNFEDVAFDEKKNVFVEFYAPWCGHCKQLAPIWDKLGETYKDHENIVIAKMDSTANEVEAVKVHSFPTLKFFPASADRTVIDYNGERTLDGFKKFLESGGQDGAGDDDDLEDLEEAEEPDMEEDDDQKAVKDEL

| SMILES | IC50 |
| --- | --- |
| COc1ccccc1C(=O)NC1CCN(C(=O)[C@H]2CC[C@@](C(=O)N[C@@H](CC(N)=O)C(=O)O)(c3ccccc3)c3ccccc32)CC1 [Co. No. 128] | > 10 µM |
| COC(=O)[C@H](CCCCNC(C)=O)NC(=O)[C@@]1(c2ccccc2)CC[C@H](C(=O)N2CCC(NC(=O)c3ccccc3OC)CC2)c2ccccc21 [Co. No. 130] | 0.262 µM |
| CCOC(=O)[C@H](CCCCNC(C)=O)NC(=O)[C@@]1(c2ccccc2)CC[C@H](C(=O)N2CCC(NC(=O)c3ccccc3OC)CC2)c2ccccc21 [Co. No. 131] | 0.0456 µM |
| COc1ccccc1C(=O)NC1CCN(C(=O)[C@H]2CC[C@@](C(=O)N[C@@H](CCCCN)C(=O)O)(c3ccccc3)c3ccccc32)CC1 [Co. No. 132] | 0.355 µM |
| CCOC(=O)CNC(=O)[C@@]1(c2ccccc2)CC[C@H](C(=O)N2CCC(NC(=O)c3cccn(C)c3=O)CC2)c2ccccc21 [Co. No. 133] | 0.796 µM |
| CCOC(=O)[C@H](C)NC(=O)[C@@]1(c2ccccc2)CC[C@H](C(=O)N2CCC(NC(=O)c3cccn(C)c3=O)CC2)c2ccccc21 [Co. No. 135] | 1.34 µM |
| CCOC(=O)[C@@H](C)NC(=O)[C@@]1(c2ccccc2)CC[C@H](C(=O)N2CCC(NC(=O)c3cccn(C)c3=O)CC2)c2ccccc21 [Co. No. 136] | 1.09 µM |
| CCOC(=O)CN(C)C(=O)[C@@]1(c2ccccc2)CC[C@H](C(=O)N2CCC(NC(=O)c3cccn(C)c3=O)CC2)c2ccccc21 [Co. No. 137] | 0.474 µM |
| CCOC(=O)[C@@H](NC(=O)[C@@]1(c2ccccc2)CC[C@H](C(=O)N2CCC(NC(=O)c3cccn(C)c3=O)CC2)c2ccccc21)C(C)C [Co. No. 139] | 0.826 µM |
| CCOC(=O)[C@H](NC(=O)[C@@]1(c2ccccc2)CC[C@H](C(=O)N2CCC(NC(=O)c3cccn(C)c3=O)CC2)c2ccccc21)C(C)C [Co. No. 140] | 1.09 µM |
| CCOC(=O)[C@H](CC(C)C)NC(=O)[C@@]1(c2ccccc2)CC[C@H](C(=O)N2CCC(NC(=O)c3cccn(C)c3=O)CC2)c2ccccc21 [Co. No. 141] | 1.86 µM |
| CCOC(=O)[C@H](CO)NC(=O)[C@@]1(c2ccccc2)CC[C@H](C(=O)N2CCC(NC(=O)c3cccn(C)c3=O)CC2)c2ccccc21 [Co. No. 142] | > 10 µM |
| CCOC(=O)C[C@H](NC(=O)[C@@]1(c2ccccc2)CC[C@H](C(=O)N2CCC(NC(=O)c3cccn(C)c3=O)CC2)c2ccccc21)C(=O)OCC [Co. No. 143] | 1.92 µM |
| CCOC(=O)C1CCCCN1C(=O)[C@@]1(c2ccccc2)CC[C@H](C(=O)N2CCC(NC(=O)c3cccn(C)c3=O)CC2)c2ccccc21 (some centres unmarked) [Co. No. 144] | 3.83 µM |
| COC(=O)CC[C@H](NC(=O)[C@@]1(c2ccccc2)CC[C@H](C(=O)N2CCC(NC(=O)c3cccn(C)c3=O)CC2)c2ccccc21)C(=O)OC [Co. No. 145] | 5.38 µM |
| CCOC(=O)CC[C@H](NC(=O)[C@@]1(c2ccccc2)CC[C@H](C(=O)N2CCC(NC(=O)c3cccn(C)c3=O)CC2)c2ccccc21)C(=O)OCC [Co. No. 146] | 0.776 µM |
| CCOC(=O)[C@@H]1CCCN1C(=O)[C@@]1(c2ccccc2)CC[C@H](C(=O)N2CCC(NC(=O)c3cccn(C)c3=O)CC2)c2ccccc21 [Co. No. 149] | > 10 µM |
| CCOC(=O)[C@H]1CCCN1C(=O)[C@@]1(c2ccccc2)CC[C@H](C(=O)N2CCC(NC(=O)c3cccn(C)c3=O)CC2)c2ccccc21 [Co. No. 150] | > 10 µM |
| COC(=O)[C@@H]1C[C@@H](O)CN1C(=O)[C@@]1(c2ccccc2)CC[C@H](C(=O)N2CCC(NC(=O)c3cccn(C)c3=O)CC2)c2ccccc21 [Co. No. 151] | > 10 µM |
| CCOC(=O)[C@H](NC(=O)[C@@]1(c2ccccc2)CC[C@H](C(=O)N2CCC(NC(=O)c3cccn(C)c3=O)CC2)c2ccccc21)c1ccccc1 [Co. No. 152] | 1.63 µM |
| CCOC(=O)[C@@H](NC(=O)[C@@]1(c2ccccc2)CC[C@H](C(=O)N2CCC(NC(=O)c3cccn(C)c3=O)CC2)c2ccccc21)c1ccccc1 [Co. No. 153] | 1.11 µM |
| CCOC(=O)[C@H](Cc1ccccc1)NC(=O)[C@@]1(c2ccccc2)CC[C@H](C(=O)N2CCC(NC(=O)c3cccn(C)c3=O)CC2)c2ccccc21 [Co. No. 154] | 1.85 µM |
| CCOC(=O)[C@@H](Cc1ccccc1)NC(=O)[C@@]1(c2ccccc2)CC[C@H](C(=O)N2CCC(NC(=O)c3cccn(C)c3=O)CC2)c2ccccc21 [Co. No. 155] | 0.731 µM |
| CCOC(=O)C(Cc1ccc(O)cc1)NC(=O)[C@@]1(c2ccccc2)CC[C@H](C(=O)N2CCC(NC(=O)c3cccn(C)c3=O)CC2)c2ccccc21 (some centres unmarked) [Co. No. 156] | 1.53 µM |

Results, then the molecule that gave them:

| IC50 | SMILES |
| --- | --- |
| 1.65 µM | CCOC(=O)C(Cc1c[nH]c2ccccc12)NC(=O)[C@@]1(c2ccccc2)CC[C@H](C(=O)N2CCC(NC(=O)c3cccn(C)c3=O)CC2)c2ccccc21 (some centres unmarked) [Co. No. 157] |
| 0.847 µM | COC(=O)CNC(=O)[C@@]1(c2ccccc2)CC[C@H](C(=O)N2CCC(NC(=O)c3cccn(C)c3=O)CC2)c2ccccc21 [Co. No. 158] |
| 0.366 µM | Cn1cccc(C(=O)NC2CCN(C(=O)C3CC[C@@](C(=O)NCC(=O)OC(C)(C)C)(c4ccccc4)c4ccccc43)CC2)c1=O (some centres unmarked) [Co. No. 160] |
| 0.458 µM | C[C@H](NC(=O)[C@@]1(c2ccccc2)CC[C@H](C(=O)N2CCC(NC(=O)c3cccn(C)c3=O)CC2)c2ccccc21)C(=O)OC(C)(C)C [Co. No. 161] |
| 1.79 µM | C[C@@H](NC(=O)[C@@]1(c2ccccc2)CC[C@H](C(=O)N2CCC(NC(=O)c3cccn(C)c3=O)CC2)c2ccccc21)C(=O)OC(C)(C)C [Co. No. 162] |
| 1.45 µM | CN(CC(=O)OC(C)(C)C)C(=O)[C@@]1(c2ccccc2)CC[C@H](C(=O)N2CCC(NC(=O)c3cccn(C)c3=O)CC2)c2ccccc21 [Co. No. 163] |
| 0.506 µM | CC(C)[C@H](NC(=O)[C@@]1(c2ccccc2)CC[C@H](C(=O)N2CCC(NC(=O)c3cccn(C)c3=O)CC2)c2ccccc21)C(=O)OC(C)(C)C [Co. No. 165] |
| 0.755 µM | CC(C)[C@@H](NC(=O)[C@@]1(c2ccccc2)CC[C@H](C(=O)N2CCC(NC(=O)c3cccn(C)c3=O)CC2)c2ccccc21)C(=O)OC(C)(C)C [Co. No. 166] |
| 0.793 µM | CC(C)C[C@H](NC(=O)[C@@]1(c2ccccc2)CC[C@H](C(=O)N2CCC(NC(=O)c3cccn(C)c3=O)CC2)c2ccccc21)C(=O)OC(C)(C)C [Co. No. 167] |
| 0.697 µM | Cn1cccc(C(=O)NC2CCN(C(=O)[C@H]3CC[C@@](C(=O)N[C@@H](COC(C)(C)C)C(=O)OC(C)(C)C)(c4ccccc4)c4ccccc43)CC2)c1=O [Co. No. 168] |
| 1.75 µM | Cn1cccc(C(=O)NC2CCN(C(=O)[C@H]3CC[C@@](C(=O)N[C@@H](CC(=O)OC(C)(C)C)C(=O)OC(C)(C)C)(c4ccccc4)c4ccccc43)CC2)c1=O [Co. No. 169] |
| > 10 µM | Cn1cccc(C(=O)NC2CCN(C(=O)[C@H]3CC[C@@](C(=O)N[C@@H](CCC(N)=O)C(=O)OC(C)(C)C)(c4ccccc4)c4ccccc43)CC2)c1=O [Co. No. 170] |
| 0.418 µM | Cn1cccc(C(=O)NC2CCN(C(=O)[C@H]3CC[C@@](C(=O)N[C@@H](CCC(=O)OC(C)(C)C)C(=O)OC(C)(C)C)(c4ccccc4)c4ccccc43)CC2)c1=O [Co. No. 171] |
| 3.3 µM | Cn1cccc(C(=O)NC2CCN(C(=O)[C@H]3CC[C@@](C(=O)N4CCC[C@H]4C(=O)OC(C)(C)C)(c4ccccc4)c4ccccc43)CC2)c1=O [Co. No. 173] |
| 2.73 µM | Cn1cccc(C(=O)NC2CCN(C(=O)[C@H]3CC[C@@](C(=O)N4CCC[C@@H]4C(=O)OC(C)(C)C)(c4ccccc4)c4ccccc43)CC2)c1=O [Co. No. 174] |
| 3.72 µM | Cn1cccc(C(=O)NC2CCN(C(=O)[C@H]3CC[C@@](C(=O)N4C[C@H](OC(C)(C)C)C[C@H]4C(=O)OC(C)(C)C)(c4ccccc4)c4ccccc43)CC2)c1=O [Co. No. 175] |
| 1.88 µM | Cn1cccc(C(=O)NC2CCN(C(=O)[C@H]3CC[C@@](C(=O)N[C@@H](C(=O)OC(C)(C)C)c4ccccc4)(c4ccccc4)c4ccccc43)CC2)c1=O [Co. No. 176] |
| 1.62 µM | Cn1cccc(C(=O)NC2CCN(C(=O)[C@H]3CC[C@@](C(=O)N[C@H](C(=O)OC(C)(C)C)c4ccccc4)(c4ccccc4)c4ccccc43)CC2)c1=O [Co. No. 177] |
| 1.49 µM | Cn1cccc(C(=O)NC2CCN(C(=O)[C@H]3CC[C@@](C(=O)N[C@@H](Cc4ccccc4)C(=O)OC(C)(C)C)(c4ccccc4)c4ccccc43)CC2)c1=O [Co. No. 178] |
| 1.32 µM | Cn1cccc(C(=O)NC2CCN(C(=O)[C@H]3CC[C@@](C(=O)N[C@H](Cc4ccccc4)C(=O)OC(C)(C)C)(c4ccccc4)c4ccccc43)CC2)c1=O [Co. No. 179] |
| 2.67 µM | Cn1cccc(C(=O)NC2CCN(C(=O)[C@H]3CC[C@@](C(=O)N[C@@H](Cc4ccc(O)cc4)C(=O)OC(C)(C)C)(c4ccccc4)c4ccccc43)CC2)c1=O [Co. No. 180] |
| > 10 µM | Cn1cccc(C(=O)NC2CCN(C(=O)[C@H]3CC[C@@](C(=O)N[C@@H](CC(N)=O)C(=O)OC(C)(C)C)(c4ccccc4)c4ccccc43)CC2)c1=O [Co. No. 181] |
| > 10 µM | Cn1cccc(C(=O)NC2CCN(C(=O)[C@H]3CC[C@@](C(=O)NCC(=O)O)(c4ccccc4)c4ccccc43)CC2)c1=O [Co. No. 182] |
